Experimental data: ChEMBL document CHEMBL5463729, “Data for DCP probe BAY 1753011” (2023); call rule not given here

What was measured:
[1] = molecular target: Tyrosine-protein kinase TXK (Homo sapiens) (UniProt P42681); test: Inhibition of Txk(h) at 10.0 µM in the Eurofins Kinase panel; conditions: Compound concentration 10.0 uM
[2] = molecular target: 5'-AMP-activated protein kinase catalytic subunit alpha-2 (Homo sapiens) (UniProt P54646); test: Inhibition of AMPKalpha2(h) at 10.0 µM in the Eurofins Kinase panel; conditions: Compound concentration 10.0 uM
5'-AMP-activated protein kinase catalytic subunit alpha-2 (Homo sapiens), sequence (P54646 whole entry, looked up): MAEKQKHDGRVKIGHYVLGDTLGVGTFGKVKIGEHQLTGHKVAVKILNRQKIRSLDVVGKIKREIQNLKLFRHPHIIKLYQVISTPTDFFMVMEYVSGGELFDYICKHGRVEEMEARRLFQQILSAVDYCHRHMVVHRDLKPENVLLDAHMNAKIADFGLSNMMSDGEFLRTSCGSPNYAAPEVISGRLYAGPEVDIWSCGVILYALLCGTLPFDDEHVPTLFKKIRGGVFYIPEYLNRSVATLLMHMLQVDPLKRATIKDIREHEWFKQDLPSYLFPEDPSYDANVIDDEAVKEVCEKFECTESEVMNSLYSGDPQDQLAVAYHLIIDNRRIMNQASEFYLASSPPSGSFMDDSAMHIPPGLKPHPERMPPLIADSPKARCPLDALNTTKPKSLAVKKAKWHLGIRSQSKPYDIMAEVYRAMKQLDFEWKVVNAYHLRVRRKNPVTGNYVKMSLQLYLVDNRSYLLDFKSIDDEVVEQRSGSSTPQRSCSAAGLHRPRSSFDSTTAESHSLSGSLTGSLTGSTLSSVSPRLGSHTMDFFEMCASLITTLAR

[3] = molecular target: Equilibrative nucleoside transporter 1/2/3/4 (Homo sapiens) (UniProt Q99808+Q7RTT9+Q14542+Q9BZD2); conditions: Compound concentration 10.0 uM
[4] = molecular target: Growth hormone secretagogue receptor type 1 (Homo sapiens) (UniProt Q92847); conditions: Compound concentration 10.0 uM
Growth hormone secretagogue receptor type 1 (Homo sapiens), sequence (Q92847 whole entry): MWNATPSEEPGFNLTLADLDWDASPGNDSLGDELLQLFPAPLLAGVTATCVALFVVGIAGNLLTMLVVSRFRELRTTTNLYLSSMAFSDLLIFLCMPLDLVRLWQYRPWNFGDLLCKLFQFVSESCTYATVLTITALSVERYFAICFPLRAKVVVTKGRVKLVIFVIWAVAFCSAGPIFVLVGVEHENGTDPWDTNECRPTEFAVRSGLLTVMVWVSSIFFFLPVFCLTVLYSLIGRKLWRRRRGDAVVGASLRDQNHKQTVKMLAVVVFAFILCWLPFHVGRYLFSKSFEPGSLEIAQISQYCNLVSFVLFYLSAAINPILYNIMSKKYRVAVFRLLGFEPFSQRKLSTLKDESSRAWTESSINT

[5] = molecular target: Fibroblast growth factor receptor 4 (Homo sapiens) (UniProt P22455); test: Inhibition of FGFR4(h) at 10.0 µM in the Eurofins Kinase panel; conditions: Compound concentration 10.0 uM
[6] = molecular target: Inhibitor of nuclear factor kappa-B kinase subunit alpha (Homo sapiens) (UniProt O15111); test: Inhibition of IKKalpha(h) at 10.0 µM in the Eurofins Kinase panel; conditions: Compound concentration 10.0 uM
[7] = organism: Mus musculus; test: Inhibition of Phorbol Ester at 10 µM in the Eurofins-Panlabs radioligand binding assay (Eurofins_assay_264500); parameters: ligand concentration 3 nM; conditions: Compound concentration 10.0 uM
[8] = Inhibition of Platelet-Derived Growth Factor (PDGF) at 10 µM in the Eurofins-Panlabs radioligand binding assay (Eurofins_assay_265200); conditions: Compound concentration 10 uM; Detection method Radioligand Binding; Incubation temperature 25 °C; Incubation time 45 min; Ligand [3H]PDGF; Ligand concentration 0.02 nM; Non-specific ligand with concentration 10 nM PDGF; Source of protein Swiss mouse 3T3 embryo cells
[9] = molecular target: Voltage-dependent N-type calcium channel subunit alpha-1B (Homo sapiens) (UniProt Q00975); test: Inhibition of Calcium Channel N-Type at 10 µM in the Eurofins-Panlabs radioligand binding assay (Eurofins_assay_216000); conditions: Rattus norvegicus; Compound concentration 10.0 uM
[10] = molecular target: Rho-associated protein kinase 2 (Homo sapiens) (UniProt O75116); test: Inhibition of ROCK-II(h) at 10.0 µM in the Eurofins Kinase panel; conditions: Compound concentration 10.0 uM
Rho-associated protein kinase 2 (Homo sapiens), sequence (O75116 whole entry, looked up): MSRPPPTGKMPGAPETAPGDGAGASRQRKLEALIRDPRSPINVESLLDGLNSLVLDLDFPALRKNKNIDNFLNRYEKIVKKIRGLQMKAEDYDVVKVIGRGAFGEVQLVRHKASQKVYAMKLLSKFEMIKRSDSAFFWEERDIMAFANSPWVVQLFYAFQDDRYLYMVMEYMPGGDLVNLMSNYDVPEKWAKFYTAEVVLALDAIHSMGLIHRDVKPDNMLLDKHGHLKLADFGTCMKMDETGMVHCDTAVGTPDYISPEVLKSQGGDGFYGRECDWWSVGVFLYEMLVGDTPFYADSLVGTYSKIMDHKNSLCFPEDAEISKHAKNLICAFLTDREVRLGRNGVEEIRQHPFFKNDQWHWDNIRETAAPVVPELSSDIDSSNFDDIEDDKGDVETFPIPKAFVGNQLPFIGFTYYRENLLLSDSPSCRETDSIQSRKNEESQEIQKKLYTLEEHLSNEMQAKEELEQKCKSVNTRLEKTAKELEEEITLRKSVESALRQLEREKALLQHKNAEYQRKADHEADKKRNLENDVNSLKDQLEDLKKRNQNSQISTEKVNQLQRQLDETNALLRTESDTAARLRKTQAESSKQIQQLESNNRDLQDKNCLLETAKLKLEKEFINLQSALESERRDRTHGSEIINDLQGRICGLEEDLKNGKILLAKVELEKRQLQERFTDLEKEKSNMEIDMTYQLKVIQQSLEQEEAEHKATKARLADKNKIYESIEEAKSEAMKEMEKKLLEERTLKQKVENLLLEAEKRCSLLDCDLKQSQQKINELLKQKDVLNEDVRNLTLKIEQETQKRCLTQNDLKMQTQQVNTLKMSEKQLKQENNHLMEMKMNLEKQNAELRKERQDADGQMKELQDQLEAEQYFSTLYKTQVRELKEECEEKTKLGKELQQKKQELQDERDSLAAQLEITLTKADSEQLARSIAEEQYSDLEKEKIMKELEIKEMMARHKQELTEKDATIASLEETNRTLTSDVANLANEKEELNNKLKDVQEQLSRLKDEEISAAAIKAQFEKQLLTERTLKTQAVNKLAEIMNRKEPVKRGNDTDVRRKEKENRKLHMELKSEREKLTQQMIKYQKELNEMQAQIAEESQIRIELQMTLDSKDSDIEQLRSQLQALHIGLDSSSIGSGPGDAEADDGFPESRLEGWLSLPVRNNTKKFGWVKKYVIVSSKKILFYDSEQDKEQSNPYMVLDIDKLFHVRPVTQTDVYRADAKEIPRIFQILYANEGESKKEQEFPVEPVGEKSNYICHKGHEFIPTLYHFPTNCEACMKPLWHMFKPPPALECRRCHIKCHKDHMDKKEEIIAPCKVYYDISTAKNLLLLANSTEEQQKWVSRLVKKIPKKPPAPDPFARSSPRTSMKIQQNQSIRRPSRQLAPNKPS

[11] = molecular target: T1, D(4) dopamine receptor (Homo sapiens) (UniProt P21917); test: Inhibition of Dopamine D4.2 at 10 µM in the Eurofins-Panlabs radioligand binding assay (Eurofins_assay_219900); parameters: ligand concentration 0.5 nM; conditions: Compound concentration 10.0 uM
T1 sequence (whole entry): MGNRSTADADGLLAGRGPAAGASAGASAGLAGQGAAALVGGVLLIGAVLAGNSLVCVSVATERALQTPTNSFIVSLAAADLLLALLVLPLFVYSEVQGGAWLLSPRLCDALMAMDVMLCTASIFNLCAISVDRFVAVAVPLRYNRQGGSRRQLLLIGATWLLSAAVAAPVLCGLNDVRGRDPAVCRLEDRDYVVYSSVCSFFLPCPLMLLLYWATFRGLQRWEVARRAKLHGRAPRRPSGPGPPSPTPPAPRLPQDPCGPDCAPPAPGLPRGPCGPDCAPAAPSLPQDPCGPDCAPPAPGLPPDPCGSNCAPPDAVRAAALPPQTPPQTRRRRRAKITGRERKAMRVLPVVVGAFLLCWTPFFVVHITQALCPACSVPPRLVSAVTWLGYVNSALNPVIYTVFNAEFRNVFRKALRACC

[12] = molecular target: Melatonin receptor type 1A (Homo sapiens) (UniProt P48039); test: Inhibition of Melatonin MT1 at 10 µM in the Eurofins-Panlabs radioligand binding assay (Eurofins_assay_251600); parameters: ligand concentration 0.05 nM; conditions: Compound concentration 10.0 uM
Melatonin receptor type 1A (Homo sapiens), sequence (P48039 whole entry): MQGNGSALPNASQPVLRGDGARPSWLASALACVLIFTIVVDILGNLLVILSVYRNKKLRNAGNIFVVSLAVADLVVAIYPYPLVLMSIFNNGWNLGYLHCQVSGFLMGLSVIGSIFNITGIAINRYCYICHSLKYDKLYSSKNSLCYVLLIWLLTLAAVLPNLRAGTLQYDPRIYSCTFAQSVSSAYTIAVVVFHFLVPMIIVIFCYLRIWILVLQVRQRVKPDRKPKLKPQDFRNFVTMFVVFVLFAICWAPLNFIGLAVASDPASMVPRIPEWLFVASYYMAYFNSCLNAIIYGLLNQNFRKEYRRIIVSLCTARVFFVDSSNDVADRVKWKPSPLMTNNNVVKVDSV

[13] = molecular target: SRSF protein kinase 2 (Homo sapiens) (UniProt P78362); test: Inhibition of SRPK2(h) at 10.0 µM in the Eurofins Kinase panel; conditions: Compound concentration 10.0 uM
SRSF protein kinase 2 (Homo sapiens), sequence (P78362 whole entry, looked up): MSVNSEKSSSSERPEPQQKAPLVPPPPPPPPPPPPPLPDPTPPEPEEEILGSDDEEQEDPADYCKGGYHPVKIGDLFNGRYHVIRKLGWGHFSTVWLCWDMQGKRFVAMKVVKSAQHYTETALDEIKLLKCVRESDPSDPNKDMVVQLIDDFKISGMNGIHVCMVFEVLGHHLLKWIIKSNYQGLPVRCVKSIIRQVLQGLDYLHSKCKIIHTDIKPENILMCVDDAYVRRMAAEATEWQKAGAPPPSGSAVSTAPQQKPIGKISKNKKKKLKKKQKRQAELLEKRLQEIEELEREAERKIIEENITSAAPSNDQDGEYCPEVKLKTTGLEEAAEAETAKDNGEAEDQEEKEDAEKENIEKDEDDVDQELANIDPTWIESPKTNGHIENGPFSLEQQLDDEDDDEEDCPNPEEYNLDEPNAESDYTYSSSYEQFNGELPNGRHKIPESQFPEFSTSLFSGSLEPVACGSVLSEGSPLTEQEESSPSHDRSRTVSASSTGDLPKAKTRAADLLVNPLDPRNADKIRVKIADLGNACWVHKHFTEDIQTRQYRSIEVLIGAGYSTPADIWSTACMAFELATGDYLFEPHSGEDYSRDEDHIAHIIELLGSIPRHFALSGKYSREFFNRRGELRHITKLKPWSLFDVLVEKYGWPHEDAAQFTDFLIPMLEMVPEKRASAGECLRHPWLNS

[14] = molecular target: 5-hydroxytryptamine receptor 1B (Homo sapiens) (UniProt P28222); test: Inhibition of Serotonin (5-Hydroxytryptamine) 5-HT1B at 10 µM in the Eurofins-Panlabs radioligand binding assay (Eurofins_assay_271200); conditions: Compound concentration 10.0 uM
5-hydroxytryptamine receptor 1B (Homo sapiens), sequence (P28222 whole entry): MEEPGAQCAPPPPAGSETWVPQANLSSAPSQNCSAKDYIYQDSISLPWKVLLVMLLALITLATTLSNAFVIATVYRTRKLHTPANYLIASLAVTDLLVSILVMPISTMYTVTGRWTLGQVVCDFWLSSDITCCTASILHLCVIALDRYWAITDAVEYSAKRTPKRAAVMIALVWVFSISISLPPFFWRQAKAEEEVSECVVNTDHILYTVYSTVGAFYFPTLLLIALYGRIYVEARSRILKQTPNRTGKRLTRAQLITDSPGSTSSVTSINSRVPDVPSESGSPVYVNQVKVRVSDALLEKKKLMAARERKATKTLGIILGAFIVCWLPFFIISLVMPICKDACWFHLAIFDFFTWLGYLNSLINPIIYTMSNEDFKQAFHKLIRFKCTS

[15] = molecular target: T2, Oxytocin receptor (Homo sapiens, UniProt P30559); test: Inhibition of Oxytocin at 1 µM in the Eurofins-Panlabs radioligand binding assay (Eurofins_assay_260900); parameters: ligand concentration 0.8 nM, non-specific ligand with concentration 1 µM Oxytocin, incubation time 2 h, incubation temperature 25°C
T2 sequence (P30559 whole entry): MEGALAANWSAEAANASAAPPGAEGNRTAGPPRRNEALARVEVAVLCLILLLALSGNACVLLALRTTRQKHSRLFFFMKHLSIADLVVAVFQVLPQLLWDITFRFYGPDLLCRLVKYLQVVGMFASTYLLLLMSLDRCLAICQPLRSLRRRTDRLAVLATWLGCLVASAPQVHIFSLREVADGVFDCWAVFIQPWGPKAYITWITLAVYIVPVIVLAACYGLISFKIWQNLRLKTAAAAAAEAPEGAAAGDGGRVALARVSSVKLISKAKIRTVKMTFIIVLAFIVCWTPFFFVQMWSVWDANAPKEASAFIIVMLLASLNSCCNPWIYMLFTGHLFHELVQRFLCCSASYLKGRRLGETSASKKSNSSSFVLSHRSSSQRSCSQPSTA

[16] = molecular target: ATP-sensitive inward rectifier potassium channel 11 (Cricetulus griseus) (UniProt A0A3L7HHE1); test: Inhibition of Potassium Channel [KATP] at 10 µM in the Eurofins-Panlabs radioligand binding assay (Eurofins_assay_265600); conditions: Cricetinae; Compound concentration 10.0 uM
ATP-sensitive inward rectifier potassium channel 11 (Cricetulus griseus), sequence (A0A3L7HHE1 as listed by the source): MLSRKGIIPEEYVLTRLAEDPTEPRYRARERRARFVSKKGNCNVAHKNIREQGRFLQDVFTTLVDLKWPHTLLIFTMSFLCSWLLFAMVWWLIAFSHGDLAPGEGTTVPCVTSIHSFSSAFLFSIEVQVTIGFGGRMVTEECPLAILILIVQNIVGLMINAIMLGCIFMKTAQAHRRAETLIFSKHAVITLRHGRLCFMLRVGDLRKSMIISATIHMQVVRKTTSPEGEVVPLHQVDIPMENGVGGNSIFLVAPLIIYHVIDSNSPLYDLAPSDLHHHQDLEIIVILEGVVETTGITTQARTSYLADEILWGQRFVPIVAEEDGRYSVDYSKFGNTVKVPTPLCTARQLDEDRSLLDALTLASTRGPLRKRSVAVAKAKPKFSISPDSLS

[17] = molecular target: B1 bradykinin receptor (Homo sapiens) (UniProt P46663); test: Inhibition of Bradykinin B1 at 10 µM in the Eurofins-Panlabs radioligand binding assay (Eurofins_assay_212510); conditions: Compound concentration 10.0 uM
B1 bradykinin receptor (Homo sapiens), sequence (P46663 whole entry): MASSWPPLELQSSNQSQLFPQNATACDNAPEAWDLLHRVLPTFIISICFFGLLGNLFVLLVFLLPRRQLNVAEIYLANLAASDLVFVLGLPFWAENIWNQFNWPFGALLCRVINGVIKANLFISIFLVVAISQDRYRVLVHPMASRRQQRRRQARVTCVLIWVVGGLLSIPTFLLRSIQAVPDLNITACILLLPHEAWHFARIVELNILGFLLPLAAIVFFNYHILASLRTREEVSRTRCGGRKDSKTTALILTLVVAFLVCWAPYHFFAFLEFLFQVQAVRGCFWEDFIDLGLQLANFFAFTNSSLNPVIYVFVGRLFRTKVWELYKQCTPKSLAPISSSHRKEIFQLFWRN

[18] = Inhibition of Atrial Natriuretic Factor (ANF) at 10 µM in the Eurofins-Panlabs radioligand binding assay (Eurofins_assay_211000); conditions: Cavia porcellus; Compound concentration 10 uM; Assay protocol publication PMID: 2408776; Detection method Radioligand Binding; Incubation temperature 4 °C; Incubation time 60 min; Ligand Bmax 0.013 pM/ mg protein; Ligand Kd 0.14 nM; Ligand [125I] ANF (rat); Ligand concentration 0.016 nM; Ligand specific binding 78 %; Non-specific ligand with concentration 0.1 µM ANF (rat); Reference compound ANF (rat); Source of …

Tyrosine-protein kinase TXK (Homo sapiens), sequence (P42681 whole entry): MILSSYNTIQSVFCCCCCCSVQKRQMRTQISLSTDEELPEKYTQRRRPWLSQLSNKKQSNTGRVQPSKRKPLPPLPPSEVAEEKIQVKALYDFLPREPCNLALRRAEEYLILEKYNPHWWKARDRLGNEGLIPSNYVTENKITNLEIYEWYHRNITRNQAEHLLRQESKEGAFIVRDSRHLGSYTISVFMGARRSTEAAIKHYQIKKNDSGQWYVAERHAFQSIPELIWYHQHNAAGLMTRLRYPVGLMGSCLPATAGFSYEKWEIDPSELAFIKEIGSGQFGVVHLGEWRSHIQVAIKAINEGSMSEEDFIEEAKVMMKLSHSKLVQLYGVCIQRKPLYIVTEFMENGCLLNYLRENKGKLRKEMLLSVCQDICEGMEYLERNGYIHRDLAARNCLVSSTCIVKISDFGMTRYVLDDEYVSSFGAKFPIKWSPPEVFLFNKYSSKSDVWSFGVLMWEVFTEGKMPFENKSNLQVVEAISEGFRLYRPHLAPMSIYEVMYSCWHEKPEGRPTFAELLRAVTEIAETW

For `O=c1n(Cc2cncn2-c2cccc(Cl)c2)nc(-c2ccc(Cl)cc2)n1C[C@H](O)C(F)(F)F`, which inhibition [1] is on record?
Its inhibition is -5.05%.

And the inhibition [2]?
The inhibition was -2.83%.

And the inhibition [3]?
Its inhibition is 10%.

And the inhibition [4]?
Its inhibition is 25%.

And the inhibition [5]?
The inhibition was -8.35%.

And the inhibition [6]?
The inhibition was -2.69%.

Which results are given for `C[C@H](O)c1nc(Cn2nc(-c3ccc(Cl)cc3)n(C[C@H](O)C(F)(F)F)c2=O)nn1-c1cccc(Cl)c1` [PECAVAPTAN]?
inhibition [7]: 3%; inhibition at 10 µM [8]: 5% (not active); inhibition [9]: -2%; inhibition [10]: 18.1%; inhibition [11]: 3%; inhibition [12]: -6%; inhibition [13]: -4.81%; inhibition [14]: -5%; IC50 [15]: 15.5 nM; Ki [15]: 5.06 nM; inhibition [16]: 18%; inhibition [17]: 0%; inhibition at 10 µM [18]: 1% (not active)
